Test system: Meloidogyne incognita
Test: Meloidogyne incognita test: gall rating on cucumber plants in pots after soil application
Type: in vivo
Design: key: 0: no galls; 1: very few small galls; 2: numerous small galls; 3: numerous small galls of which some are grown together; 4: numerous small and some big galls; 25% of roots severely galled; 6: 50% of roots severely galled; 75% of roots severely galled; 8: no healthy roots but plant is still green; 9: roots rotting and plant dying; 10: plant and roots dead
Details: 1000 ppm applied to soil inoculated with 5000 eggs & J2s; cucumber seedlings; rated 30 days after application; 0-10 scale (Zeck 1971); untreated check up to 8
Procedure: Meloidogyne incognita Test:
The trial pots were filled with soil containing a mixture of sand:soil:cocopeat in a ratio of 1:1:1. To the soil of each pot 5 mL of a nematode suspension (Meloidogyne incognita, mix of 5000 eggs & J2s) was added. One hour later the respective test compound at the stated concentration was applied to each pot. 10 days old cucumber seedlings were transplanted into the pots one day after the application. The cucumber plants were allowed to grow at a temperature of 27° C. under greenhouse conditions. The evaluation of the gall rating was recorded 30 days after the application. The plants were carefully uprooted and the roots were thoroughly washed. The gall rating was done on a 0-10 scale as described by Zeck (1971) and shown below: • 0=no galls • 1=very few small galls • 2=numerous small galls • 3=numerous small galls of which some are grown together • 4=numerous small and some big galls • 5=25% of roots severely galled • 6=50% of roots severely galled • 7=75% of roots severely galled • 8=no healthy roots but plant is still green • 9=roots rotting and plant dying • 10=plant and roots dead

SMILES	gall rating scale
O=C(NS(=O)(=O)c1cc(Cl)ccc1Cl)c1cn(-c2cc(Cl)cc(Cl)c2)nn1 [Compound 2, 1-(3,5-dichlorophenyl)-N-((2,5-dichlorophenyl)sulfonyl)-1H-1,2,3-triazole-4-carboxamide]	4
Cc1c(C(=O)NS(=O)(=O)c2ccccc2Cl)nnn1-c1cc(Cl)cc(Cl)c1 [Compound 7, N-((2-chlorophenyl)sulfonyl)-1-(3,5-dichlorophenyl)-5-methyl-1H-1,2,3-triazole-4-carboxamide]	4
Cc1c(C(=O)NS(=O)(=O)c2cc(Cl)ccc2Cl)nnn1-c1cc(Cl)cc(Cl)c1 [Compound 8, 1-(3,5-dichlorophenyl)-N-((2,5-dichlorophenyl)sulfonyl)-5-methyl-1H-1,2,3-triazole-4-carboxamide]	4
Cc1c(C(=O)NS(=O)(=O)c2ccccc2OC(F)(F)F)nnn1-c1cc(Cl)cc(Cl)c1 [Compound 17]	4
Cc1c(C(=O)NS(=O)(=O)c2ccc(F)cc2)nnn1-c1cc(Cl)cc(Cl)c1 [Compound 25]	4
Cc1c(C(=O)NS(=O)(=O)c2cc(C(F)(F)F)ccc2Cl)nnn1-c1ccc(Cl)cc1Cl [Compound 33]	4
O=C(NS(=O)(=O)c1ccccc1)c1nnn(-c2cc(Cl)cc(Cl)c2)c1C(F)(F)F [Compound 35, 1-(3,5-dichlorophenyl)-N-(phenylsulfonyl)-5-(trifluoromethyl)-1H-1,2,3-triazole-4-carboxamide]	4
O=C(NS(=O)(=O)c1c(F)cccc1F)c1nnn(-c2ccc(Cl)cc2C(F)(F)F)c1C(F)(F)F [Compound 52]	4
COc1ccc(Cl)c(S(=O)(=O)NC(=O)c2nnn(-c3ccc(Cl)cc3Cl)c2C)c1 [Compound 56]	4
COc1ccc(Cl)c(S(=O)(=O)NC(=O)c2nnn(-c3ccc(Cl)cc3C(F)(F)F)c2C(F)(F)F)c1 [Compound 57]	4
COc1ccc(Cl)c(S(=O)(=O)NC(=O)c2nnn(-c3ccc(Cl)cc3C(F)(F)F)c2C)c1 [Compound 61]	4
O=C(NS(=O)(=O)c1cc(C(F)(F)F)ccc1Cl)c1nnn(-c2ccc(C(F)(F)F)cc2Cl)c1C(F)(F)F [Compound 76]	4
Cc1c(C(=O)NS(=O)(=O)c2ccccc2F)nnn1-c1cc(Cl)cc(C(F)(F)F)c1 [Compound 96]	4
Cc1c(C(=O)NS(=O)(=O)c2c(F)cc(F)cc2F)nnn1-c1cc(Cl)cc(C(F)(F)F)c1 [Compound 97]	4
COc1ccc(Cl)c(S(=O)(=O)NC(=O)c2nnn(-c3cc(C(F)(F)F)cc(C(F)(F)F)c3)c2C)c1 [Compound 108]	4
Cc1c(C(=O)NS(=O)(=O)c2ccccc2C(F)(F)F)nnn1-c1ccc(OC(F)(F)F)cc1Cl [Compound 132]	4
COc1ccc(Cl)c(S(=O)(=O)NC(=O)c2nnn(-c3ccc(OC(F)(F)F)cc3Cl)c2C)c1 [Compound 133]	4
Cc1c(C(=O)NS(=O)(=O)c2cc(Cl)ccc2Cl)nnn1-c1ccc(OC(F)(F)F)cc1Cl [Compound 134, 1-(2-chloro-4-(trifluoromethoxy)phenyl)-N-((2,5-dichlorophenyl)sulfonyl)-5-methyl-1H-1,2,3-triazole-4-carboxamide]	4
Cc1c(C(=O)NS(=O)(=O)c2cc(C(F)(F)F)ccc2Cl)nnn1-c1ccc(OC(F)(F)F)cc1Cl [Compound 135]	4
Cc1c(C(=O)NS(=O)(=O)c2cc(F)cc(F)c2)nnn1-c1ccc(OC(F)(F)F)cc1Cl [Compound 140]	4
Cc1c(C(=O)NS(=O)(=O)c2ccccc2F)nnn1-c1ccc(OC(F)(F)F)cc1Cl [Compound 143]	4
Cc1c(C(=O)NS(=O)(=O)c2cc(Cl)ccc2F)nnn1-c1ccc(OC(F)(F)F)cc1Cl [Compound 168, N-((5-chloro-2-fluorophenyl)sulfonyl)-1-(2-chloro-4-(trifluoromethoxy)phenyl)-5-methyl-1H-1,2,3-triazole-4-carboxamide]	4
O=C(NS(=O)(=O)c1cc(C(F)(F)F)ccc1Cl)c1nnn(-c2ccc(OC(F)(F)F)cc2Cl)c1C(F)(F)F [Compound 171, 1-(2-chloro-4-(trifluoromethoxy)phenyl)-N-((2-chloro-5-(trifluoromethyl)phenyl)sulfonyl)-5-(trifluoromethyl)-1H-1,2,3-triazole-4-carboxamide]	4
O=C(NS(=O)(=O)c1ccccc1C(F)(F)F)c1nnn(-c2ccc(Cl)cc2Cl)c1C(F)(F)F [Compound 209]	4
O=C(NS(=O)(=O)c1cc(C(F)(F)F)ccc1Cl)c1nnn(-c2ccc(Cl)cc2Cl)c1C(F)(F)F [Compound 210]	4

SMILES	gall rating scale
Cc1ccc(C)c(S(=O)(=O)NC(=O)c2nnn(-c3ccc(OC(F)(F)F)cc3Cl)c2C)c1 [Compound 217]	4
O=C(NS(=O)(=O)c1ccc(F)cc1F)c1nnn(-c2ccc(Cl)cc2Cl)c1C(F)(F)F [Compound 218]	4
O=C(NS(=O)(=O)c1cc(C(F)(F)F)ccc1Cl)c1nnn(-c2ccc(OC(F)(F)F)cc2Cl)c1C1CC1 [Compound 227, 1-(2-chloro-4-(trifluoromethoxy)phenyl)-N-((2-chloro-5-(trifluoromethyl)phenyl)sulfonyl)-5-cyclopropyl-1H-1,2,3-triazole-4-carboxamide]	4
O=C(NS(=O)(=O)c1ccccc1C(F)(F)F)c1nnn(-c2ccc(OC(F)(F)F)cc2Cl)c1C1CC1 [Compound 228]	4
O=C(NS(=O)(=O)c1cc(Cl)ccc1Cl)c1nnn(-c2ccc(OC(F)(F)F)cc2Cl)c1C1CC1 [Compound 229, 1-(2-chloro-4-(trifluoromethoxy)phenyl)-5-cyclopropyl-N-((2,5-dichlorophenyl)sulfonyl)-1H-1,2,3-triazole-4-carboxamide]	4
COc1ccc(Cl)c(S(=O)(=O)NC(=O)c2nnn(-c3ccc(OC(F)(F)F)cc3Cl)c2C2CC2)c1 [Compound 230, 1-(2-chloro-4-(trifluoromethoxy)phenyl)-N-((2-chloro-5-methoxyphenyl)sulfonyl)-5-cyclopropyl-1H-1,2,3-triazole-4-carboxamide]	4
CCc1c(C(=O)NS(=O)(=O)c2cc(C(F)(F)F)ccc2Cl)nnn1-c1ccc(Cl)cc1Cl [Compound 231]	4
Cc1c(C(=O)NS(=O)(=O)c2cc(C(F)(F)F)ccc2F)nnn1-c1ccc(Cl)cc1Cl [Compound 240]	4
Cc1c(C(=O)NS(=O)(=O)c2ccccc2C(F)(F)F)nnn1-c1ccc(Cl)cc1Cl [Compound 241]	4
COc1ccc(Cl)c(S(=O)(=O)NC(=O)c2nnn(-c3ccc(F)cc3Cl)c2C)c1 [Compound 242]	4
Cc1c(C(=O)NS(=O)(=O)c2ccccc2C(F)(F)F)nnn1-c1ccc(F)cc1Cl [Compound 245]	4
Cc1c(C(=O)NS(=O)(=O)c2ccccc2F)nnn1-c1ccc(F)cc1Cl [Compound 246]	4
Cc1c(C(=O)NS(=O)(=O)c2cc(Cl)c(F)cc2F)nnn1-c1ccc(F)cc1Cl [Compound 250]	4
Cc1c(C(=O)NS(=O)(=O)c2cc(C(F)(F)F)ccc2Cl)nnn1-c1ccc(F)cc1Cl [Compound 252, 1-(2-chloro-4-fluorophenyl)-N-((2-chloro-5-(trifluoromethyl)phenyl)sulfonyl)-5-methyl-1H-1,2,3-triazole-4-carboxamide]	4
Cc1c(C(=O)NS(=O)(=O)c2cc(C(F)(F)F)ccc2Cl)nnn1-c1cc(Cl)cc(Cl)c1 [Compound 253]	4
Cc1c(C(=O)NS(=O)(=O)c2ccccc2C(F)(F)F)nnn1-c1cc(Cl)cc(Cl)c1 [Compound 254]	4
Cc1c(C(=O)NS(=O)(=O)c2ccccc2C(F)(F)F)nnn1-c1cc(Cl)ccc1Cl [Compound 259, 1-(2,5-dichlorophenyl)-5-methyl-N-((2-(trifluoromethyl)phenyl)sulfonyl)-1H-1,2,3-triazole-4-carboxamide]	4
COc1ccc(Cl)c(S(=O)(=O)NC(=O)c2nnn(-c3ccc(C#N)cc3Cl)c2C)c1 [Compound 260]	4
Cc1c(C(=O)NS(=O)(=O)c2cc(C(F)(F)F)ccc2Br)nnn1-c1ccc(Cl)cc1Cl [Compound 261]	4
Cc1c(C(=O)NS(=O)(=O)c2cc(F)ccc2F)nnn1-c1ccc(C#N)cc1Cl [Compound 269]	4
Cc1c(C(=O)NS(=O)(=O)c2ccccc2C(F)(F)F)nnn1-c1ccc(C#N)cc1Cl [Compound 271]	4
Cc1c(C(=O)NS(=O)(=O)c2ccccc2Cl)nnn1-c1ccc(C#N)cc1Cl [Compound 272]	4
Cc1c(C(=O)NS(=O)(=O)c2ccccc2F)nnn1-c1ccc(Cl)cc1Cl [Compound 278, 1-(2,4-dichlorophenyl)-N-((2-fluorophenyl)sulfonyl)-5-methyl-1H-1,2,3-triazole-4-carboxamide]	4
Cc1c(C(=O)NS(=O)(=O)c2ccc(F)cc2F)nnn1-c1ccc(Cl)cc1Cl [Compound 279, 1-(2,4-dichlorophenyl)-N-((2,4-difluorophenyl)sulfonyl)-5-methyl-1H-1,2,3-triazole-4-carboxamide]	4
